In this assay the test system is CpomOrco + OR1. Briefly: Whole-cell patch-clamp recording of HEK293T cells expressing CpomOrco + OR1. The class given is cell-based, Cydia pomonella. The settings on record: VUAA3 200 μM, n = 37. On the procedure: To test transient expression of CpomORs for calcium imaging or patch-clamp recording experiments, 35-mm petri dishes containing semi-confluent HEK293T cells were transiently transfected. To transfect cells with CpomOrco, we used 1.0 μg of pcDNA5/TO/CpomOrco DNA. In order to promote expression of the OR[51], we used double aliquots for pcDNA5/TO/CpomOR DNAs (2.0 μg), combined with 1.0 μg of pcDNA5/TO/CpomOrco for co-transfections (CpomOrco + ORs). […] In patch-clamp recordings, 1.0 μg of a separate plasmid DNA (pXOOM, Clontech) carrying the coding sequence for a green fluorescent protein (GFP) was used to report expression. In order to report candidate OR-expressing cells, expression of both fluorescent reporter genes was under the regulation of the same promoter for CpomOR genes (CMV). Transfection DNAs were dissolved in 100 μL sterile DMEM, mixed with 3.0 μL Calfectin (SignaGen, Rockville, MD, USA) following the recommended protocol. […] The currents were measured with a 200B patch-clamp amplifier (Molecular Devices) and a digital interface (Digidata 1320 A, Molecular Devices), low pass filtered at 5.0 kHz, sampled at 1-2 kHz. […] The OR channel current noise was recorded using outside-out patches excised from HEK293T cells and evoked by stimulation with 250 μM VUAA3. […]

For `CCn1c(SCC(=O)Nc2ccc(C(C)C)cc2)nnc1-c1ccncc1` [VUAA3, acetamide,2-[[4-ethyl-5-(4-pyridinyl)-4H-1,2,4-triazol-3-yl]thio]-N-[4-(1-methylethyl)phenyl]-], the “inward current amplitude, variation” value was −49 to −1165 pA and the “inward current mean amplitude” value was −431 ± 54 pA.

These data come from PMC5259778, “Candidate pheromone receptors of codling moth Cydia pomonella respond to pheromones and kairomones” (Scientific Reports, 2017).
